For 2 molecules, CC50, EC50 and activity results are on record in PMC6204821, “Inhibitory effect of microalgae and cyanobacteria extracts on influenza virus replication and neuraminidase activity” (PeerJ, 2018).

One data set is described as follows: in vitro. Particulars: dog.
For data set [1], the system named is A(H1N1)pdm09-WT (A/California/04/2009). Briefly: microbe, parasite or virus in culture. The settings on record: Influenza A virus, H1N1, MDCK, read-out: EC50 A(H1N1)pdm09-WT. It counts as cell-based.
Data set [2] concerns A(H3N2)-WT (A/Switzerland/9715293/2013). The experiment in a line: microbe, parasite or virus in culture. In kind it is cell-based. Particulars: Influenza A virus, H3N2, MDCK, read-out: EC50 A(H3N2)-WT.
For data set [3], the target named is neuraminidase of B/Perth/211/2001 Yam (WT) (Influenza B virus, UniProt Q3S340). The experiment in a line: biochemical. The settings on record: read-out: NA Activity (%).
Sequence of neuraminidase of B/Perth/211/2001 Yam (WT) (Q3S340 1-466): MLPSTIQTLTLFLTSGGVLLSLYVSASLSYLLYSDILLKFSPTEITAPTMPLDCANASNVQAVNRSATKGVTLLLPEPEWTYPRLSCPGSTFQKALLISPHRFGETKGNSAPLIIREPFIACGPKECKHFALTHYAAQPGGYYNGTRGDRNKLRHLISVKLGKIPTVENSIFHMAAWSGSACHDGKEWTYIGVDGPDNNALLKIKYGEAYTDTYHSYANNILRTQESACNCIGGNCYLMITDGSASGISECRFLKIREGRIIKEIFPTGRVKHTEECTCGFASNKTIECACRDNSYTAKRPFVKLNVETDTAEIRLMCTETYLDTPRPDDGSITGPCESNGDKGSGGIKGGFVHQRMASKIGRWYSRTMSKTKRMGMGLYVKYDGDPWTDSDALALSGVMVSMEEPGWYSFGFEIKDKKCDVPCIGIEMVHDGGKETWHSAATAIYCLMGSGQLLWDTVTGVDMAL

Experimental for in vitro: One hundred microliters of 2.0 × 10^4 MDCK cells were seeded into the 96-well culture plates (flat bottom) and grown for 24 h at 37 °C in a 5% CO2 atmosphere, then, the extracts were added with a final concentration of 1 mg/mL in DMEM. […] The extracts were diluted in culture medium DMEM, the DMSO final concentration was equal to 1.0% (v/v). After 48 h of cells incubation with extracts or vehicle (DMSO), a freshly prepared XTT (Sigma) solution was added, as specified by the manufacturer’s instructions. […] The cell viability was calculated by the comparison between absorbance (A475 nm–A660 nm) from treated (A) and untreated (B) cells using the formula: A/B × 100. Tests were carried out performing three replicates (n = 3).

For the molecule `CCC(CC)O[C@@H]1C=C(C(=O)O)C[C@H](N)[C@H]1NC(C)=O` [OST-car, Oseltamivir carboxylate], in “in vitro”, the CC50 at 48 h turned out to be 2130 µM. Moreover, the EC50 in data set [1] turned out to be 0.012 µM; in data set [2], 0.032 µM.
On to `CCOC(=O)C1=C[C@@H](OC(CC)CC)[C@H](NC(C)=O)[C@@H](N)C1` [Oseltamivir], for which, in data set [3], the activity at 10 pM came to 104%, the activity at 0.0001 µM was found to be 118%, the activity at 0.001 µM is 92% and the activity at 0.01 µM was found to be 32%. In data set [3], the activity at 0.1 µM was determined as 11% and the activity at 1 µM was 11%.
